25 compounds from patent US20210355104A1, “ADENOSINE RECEPTOR BINDING COMPOUNDS” (Nikang Therapeuticsm Inc., priority 2018, published 2021) can be followed below.

For assay [1], the target named is T1, Adenosine A2A receptor (Homo sapiens, UniProt P29274). In words: Adenosine A2A receptor competitive binding assay (Tag-lite HTRF). Particulars: Tag-lite adenosine A2A receptor ligand binding. A digest of the protocol:
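Compound displacement of a red fluorescent antagonist tracer (added at 60 nM stock) from donor-labelled, pre-transfected human A2A cells was read by HTRF after 2 h at room temperature; compound dilutions contained 0.6% DMSO.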
Background: Time-resolved FRET reads energy transfer from a long-lived donor to a nearby acceptor.

In assay [2] the target is T1, Adenosine A2A receptor. In words: cAMP assay in 293A cells stably expressing the adenosine A2A receptor (CGS21680 stimulation, HTRF). In kind it is cell-based. On the set-up: expressed in transfected cells; host or cells: 293A cells (Invitrogen, Cat# R705-07) infected with A2A-expressing lentivirus (custom packaged by Biosettia), puromycin selected. Particulars: 293A-A2AR cells, 0.1% BSA. (Changes in cAMP serve as a functional read-out for many G protein-coupled receptors.)

[3] abbreviates: 2 h room temperature, values separated by / are repeat determinations.
The mark [4] stands for this setting: 8 nM CGS, values separated by / are repeat determinations, read-out: cAMP (nM) 0.1% BSA, 8 nM CGS.
Setting [5] is: 1 uM CGS, read-out: cAMP (nM) 0.1% BSA, 1 uM CGS.
Where [6] appears, read: 8 nM CGS, read-out: cAMP (nM) 0.1% BSA, 8 nM CGS.
Setting [7] is: 1 uM CGS, values separated by / are repeat determinations, read-out: cAMP (nM) 0.1% BSA, 1 uM CGS.

Values joined by “and” are separate entries in the source; they are usually repeats but may differ in a detail not shown here. Identical values can stand only once.

T1 sequence (P29274 whole entry): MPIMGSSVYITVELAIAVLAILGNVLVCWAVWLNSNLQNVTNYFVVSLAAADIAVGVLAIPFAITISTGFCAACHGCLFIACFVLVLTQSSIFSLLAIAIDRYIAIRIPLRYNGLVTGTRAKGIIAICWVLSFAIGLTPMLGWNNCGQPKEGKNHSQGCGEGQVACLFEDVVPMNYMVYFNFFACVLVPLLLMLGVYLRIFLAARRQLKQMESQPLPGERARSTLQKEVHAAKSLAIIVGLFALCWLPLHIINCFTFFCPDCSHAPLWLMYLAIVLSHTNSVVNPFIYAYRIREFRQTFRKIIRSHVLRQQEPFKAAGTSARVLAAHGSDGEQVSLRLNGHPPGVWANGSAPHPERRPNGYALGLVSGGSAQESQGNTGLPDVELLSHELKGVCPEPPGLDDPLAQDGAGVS

On to `Cc1cc(-c2c(OCc3nccn3C3COC3)nc(N)nc2-c2ccc(F)cc2)cc(C(F)F)n1` [Example 171, 5-(2-(difluoromethyl)-6-methylpyridin-4-yl)-4-(4-fluorophenyl)-6-((1-(oxetan-3-yl)-1H-imidazol-2-yl)methoxy)pyrimidin-2-amine], for which the figures for the IC50 in assay [1] (setting [3]) and in assay [2] (setting [4]) were 3.6 nM and 4.1 nM, respectively.

In the case of `Cc1cc(-c2c(OCc3nccn3CS(C)(=O)=O)nc(N)nc2-c2ccc(F)cc2)cc(C(F)F)n1` [Example 215, 5-(2-(difluoromethyl)-6-methylpyridin-4-yl)-4-(4-fluorophenyl)-6-((1-((methylsulfonyl)methyl)-1H-imidazol-2-yl)methoxy)pyrimidin-2-amine], the IC50 in assay [1] (HTRF) worked out at 9.7 nM; in assay [2] (setting [5]), 965 nM.

With `Cc1cc(-c2c(OCCNS(N)(=O)=O)nc(N)nc2-c2ccccc2)cc(C(F)(F)F)n1` [Example 112], the IC50 in assay [1] (setting [3]) was 6.7 nM; in assay [2] (setting [4]), 3.1 nM.

With `Cc1cc(-c2c(OCC(O)CCO)nc(N)nc2-c2ccc(F)cc2)cc(C(F)F)n1` (stereo not shown) [Example 81, 4-((2-amino-5-(2-(difluoromethyl)-6-methylpyridin-4-yl)-6-(4-fluorophenyl)pyrimidin-4-yl)oxy)butane-1,3-diol], the IC50 is 5.6 nM in assay [1] (setting [3]); 21 nM and 5.9 nM and 8.4 nM in assay [2] (setting [4]).

As for `Cc1cc(-c2c(OCCc3ccccc3)nc(N)nc2-c2ccccc2)cc(C(F)(F)F)n1` [Example 8, 5-(2-methyl-6-(trifluoromethyl)pyridin-4-yl)-4-phenethoxy-6-phenylpyrimidin-2-amine], the IC50 in assay [1] (setting [3]) was 10.2 nM and 18 nM; in assay [2] (setting [4]), 7.4 nM and 7.7 nM.

Turning to `Cc1cc(-c2c(O)nc(N)nc2-c2ccc(F)cc2)cc(C(F)F)n1` [Example 206, 2-amino-5-(2-(difluoromethyl)-6-methylpyridin-4-yl)-6-(4-fluorophenyl)pyrimidin-4-ol], the IC50 in assay [1] (HTRF) worked out at 9.2 nM; in assay [2] (setting [6]), 10 nM; in assay [2] (setting [5]) it was 4660 nM.

As to `COCCNC(=O)COc1nc(N)nc(-c2ccc(F)cc2)c1-c1cc(C)nc(C(F)F)c1` [Example 45, 2-((2-amino-5-(2-(difluoromethyl)-6-methylpyridin-4-yl)-6-(4-fluorophenyl)pyrimidin-4-yl)oxy)-N-(2-methoxyethyl)acetamide], the IC50 was 25.7 nM in assay [1] (setting [3]); 66 nM and 8.9 nM in assay [2] (setting [4]).

With `CCN(CC)C(=O)COc1nc(N)nc(-c2ccc(F)cc2)c1-c1cc(C)nc(C(F)F)c1` [Example 28, 2-([2-amino-5-[2-(difluoromethyl)-6-methylpyridin-4-yl]-6-(4-fluorophenyl)pyrimidin-4-yl]oxy)-N,N-diethylacetamide], the IC50 in assay [1] (setting [3]) was 7.56 nM; in assay [2] (setting [4]), 0.44 nM and 1.3 nM.

For the compound `Cc1cc(-c2c(OCc3ncc(S(C)(=O)=O)n3C(C)C)nc(N)nc2-c2ccc(F)cc2)cc(C(F)F)n1` [Example 192, 5-(2-(difluoromethyl)-6-methylpyridin-4-yl)-4-(4-fluorophenyl)-6-((1-isopropyl-5-(methylsulfonyl)-1H-imidazol-2-yl)methoxy)pyrimidin-2-amine], the IC50 was found to be 26 nM in assay [1] (setting [3]) and 9.7 nM in assay [2] (setting [4]).

`Cc1cc(-c2c(OCC(=O)Nc3ccccc3)nc(N)nc2-c2ccc(F)cc2)cc(C(F)F)n1` [Example 92, 2-((2-amino-5-(2-(difluoromethyl)-6-methylpyridin-4-yl)-6-(4-fluorophenyl)pyrimidin-4-yl)oxy)-N-phenylacetamide]: the IC50 worked out at 48 nM in assay [1] (setting [3]) and 6.4 nM in assay [2] (setting [4]).

With `Cc1cc(-c2c(OCCNS(N)(=O)=O)nc(N)nc2-c2ccc(F)cc2)cc(C(F)F)n1` [Example 59], the IC50 in assay [1] (setting [3]) is 1.8 nM and 7.8 nM; in assay [2] (setting [4]), 2.2 nM and 1.3 nM; in assay [2] (setting [7]), 663 nM and 394 nM.

For the compound `Cc1cc(-c2c(OCCOc3ccnc(N(C)CCO)c3)nc(N)nc2-c2ccc(F)cc2)cc(C(F)F)n1` [Example 212, 2-((4-(2-((2-amino-5-(2-(difluoromethyl)-6-methylpyridin-4-yl)-6-(4-fluorophenyl)pyrimidin-4-yl)oxy)ethoxy)pyridin-2-yl)(methyl)amino)ethan-1-ol], the results for the IC50 in assay [1] (HTRF) and in assay [2] (setting [6]) were 174 nM and 62 nM, respectively.

For `COCCOc1ccc(N2CCN(CCOc3nc(N)nc(-c4ccc(F)cc4)c3-c3cc(C)nc(C(F)F)c3)CC2)cc1` [Example 53, 5-(2-Difluoromethyl-6-methyl-pyridin-4-yl)-4-(4-fluoro-phenyl)-6-(2-{4-[4-(2-methoxy-ethoxy)-phenyl]-piperazin-1-yl}-ethoxy)-pyrimidin-2-ylamine], the IC50 in assay [1] (setting [3]) was 13 nM; in assay [2] (setting [4]), 0.67 nM.

Take `CCNCCOc1nc(N)nc(-c2ccc(F)cc2)c1-c1cc(C)nc(C(F)F)c1` [Example 65, 5-(2-(difluoromethyl)-6-methylpyridin-4-yl)-4-(2-(ethylamino)ethoxy)-6-(4-fluorophenyl)pyrimidin-2-amine]: the IC50 in assay [1] (setting [3]) is 42 nM; in assay [2] (setting [4]) it was 1.6 nM; in assay [2] (setting [7]) it was 1010 nM.

For `CCNC(=O)Nc1ccc(CCOc2nc(N)nc(-c3ccc(F)cc3)c2-c2cc(C)nc(C(F)F)c2)cc1` [Example 67, 1-(4-(2-((2-amino-5-(2-(difluoromethyl)-6-methylpyridin-4-yl)-6-(4-fluorophenyl)pyrimidin-4-yl)oxy)ethyl)phenyl)-3-ethylurea], the IC50 in assay [1] (setting [3]) was found to be 27 nM; in assay [2] (setting [4]) it was 4.7 nM.

Take `Cc1cc(-c2c(OCC3CCC(C)(O)CC3)nc(N)nc2-c2ccc(F)cc2)cc(C(F)F)n1` (stereo not shown) [Example 197, 4-(((2-amino-5-(2-(difluoromethyl)-6-methylpyridin-4-yl)-6-(4-fluorophenyl)pyrimidin-4-yl)oxy)methyl)-1-methylcyclohexan-1-ol]: the IC50 worked out at 19.1 nM in assay [1] (HTRF) and 6.3 nM in assay [2] (setting [6]).

For the compound `Cc1cc(-c2c(OCC3CNC3)nc(N)nc2-c2ccc(F)cc2)cc(C(F)F)n1` [Example 75, 4-(azetidin-3-ylmethoxy)-5-(2-(difluoromethyl)-6-methylpyridin-4-yl)-6-(4-fluorophenyl)pyrimidin-2-amine], the IC50 in assay [1] (setting [3]) stood at 201 nM; in assay [2] (setting [4]) it was 89 nM.

Turning to `Cc1cc(-c2c(OCCC(C)(C)C(=O)O)nc(N)nc2-c2ccc(F)cc2)cc(C(F)F)n1` [Example 70, 4-((2-amino-5-(2-(difluoromethyl)-6-methylpyridin-4-yl)-6-(4-fluorophenyl)pyrimidin-4-yl)oxy)-2,2-dimethylbutanoic acid], the IC50 was 3.6 nM and 1 nM and 4 nM in assay [1] (setting [3]); 513 nM and 315 nM and 231 nM and 229 nM and 143 nM in assay [2] (setting [7]).

In the case of `Cc1cc(-c2c(OCc3nccn3C3CC(O)C3)nc(N)nc2-c2ccc(F)cc2)cc(C(F)F)n1` (stereo not shown) [Example 210, 3-(2-(((2-amino-5-(2-(difluoromethyl)-6-methylpyridin-4-yl)-6-(4-fluorophenyl)pyrimidin-4-yl)oxy)methyl)-1H-imidazol-1-yl)cyclobutan-1-ol], the IC50 in assay [1] (HTRF) is 3.4 nM and 5.4 nM; in assay [2] (setting [6]), 3.7 nM and 5.4 nM; in assay [2] (setting [5]) it was 2250 nM.

Regarding `Cc1cc(-c2c(OCCCN3CCOCC3)nc(N)nc2-c2ccc(F)cc2)cc(C(F)F)n1` [Example 80, 5-(2-(difluoromethyl)-6-methylpyridin-4-yl)-4-(4-fluorophenyl)-6-(3-morpholinopropoxy)pyrimidin-2-amine], the IC50 came to 42 nM in assay [1] (setting [3]) and 6.4 nM in assay [2] (setting [4]).

As to `CCN(CC)C(=O)COc1nc(N)nc(-c2ccccc2)c1-c1cc(C)nc(C(C)(F)F)c1` [Example 16, 2-((2-amino-5-(2-(1,1-difluoroethyl)-6-methylpyridin-4-yl)-6-phenylpyrimidin-4-yl)oxy)-N,N-diethylacetamide], the IC50 in assay [1] (setting [3]) turned out to be 1.47 nM; in assay [2] (setting [4]), 6.5 nM.

Regarding `Cc1cc(-c2c(OCc3ncnn3C(C)C)nc(N)nc2-c2ccc(F)cc2)cc(C(F)F)n1` [Example 179, 5-(2-(difluoromethyl)-6-methylpyridin-4-yl)-4-(4-fluorophenyl)-6-((1-isopropyl-1H-1,2,4-triazol-5-yl)methoxy)pyrimidin-2-amine], the IC50 in assay [1] (setting [3]) was 0.7 nM and 1 nM; in assay [2] (setting [4]) it was 2.9 nM; in assay [2] (setting [7]) it was 16 nM and 57 nM.

Regarding `Cc1cc(-c2c(OCC3(F)CCOCC3)nc(N)nc2-c2ccc(F)cc2)cc(C(F)F)n1` [Example 102, 5-(2-(difluoromethyl)-6-methylpyridin-4-yl)-4-(4-fluorophenyl)-6-((4-fluorotetrahydro-2H-pyran-4-yl)methoxy)pyrimidin-2-amine], the IC50 in assay [1] (setting [3]) amounted to 0.83 nM; in assay [2] (setting [7]) it was 10 nM.

As for `CCn1nnnc1COc1nc(N)nc(-c2ccc(F)cc2)c1-c1cc(C)nc(C(F)F)c1` [Example 295, 5-(2-(difluoromethyl)-6-methylpyridin-4-yl)-4-((1-ethyl-1H-tetrazol-5-yl)methoxy)-6-(4-fluorophenyl)pyrimidin-2-amine], the IC50 was 7.4 nM in assay [1] (HTRF); 175 nM and 69 nM and 201 nM in assay [2] (setting [5]).

Take `Cc1cc(-c2c(OCCN(C)c3cccnn3)nc(N)nc2-c2ccc(F)cc2)cc(C(F)F)n1` [Example 150, N-(2-((2-amino-5-(2-(difluoromethyl)-6-methylpyridin-4-yl)-6-(4-fluorophenyl)pyrimidin-4-yl)oxy)ethyl)-N-methylpyridazin-3-amine]: the IC50 in assay [1] (setting [3]) was 2.7 nM and 3.2 nM; in assay [2] (setting [7]), 98 nM.
